Laboratory results published in patent US11957684B2, “Treatment of heavy menstrual bleeding associated with uterine fibroids” (Sumitomo Pharma Switzerland GmbH, priority 2016, dated 2024).
Where “and” joins values, the source holds several entries; their conditions need not be identical. Equal entries are not always repeated.

Test system: heavy menstrual bleeding associated with uterine fibroids
Assay: Example 5A 12-week placebo-controlled study in uterine fibroids: efficacy (PBAC, volumes, NRS, UFS-QOL, anemia parameters)
Format: in vivo, human
Protocol: Study participants were Japanese women with HMB (heavy menstrual bleeding) associated with UF (uterine fibroids).
Only the largest myomas among those measurable at Visit 1 were measured throughout the study.
During the period between Visit 2 and 3, in which subjects must have experienced at least 1 regular menstrual cycle, the baseline values concerning efficacy evaluation, including PBAC scores and pain symptoms, were collected. The baseline PBAC score is the total PBAC score for the entire menstrual cycle immediately before Visit 3.
Visit 3 was on Days 1 to 5 of the second menstrual cycle after Visit 1. From Visits 3 to 7, subjects tried to visit the clinics in a fasted state and before taking the study drug.
When a dose was missed before breakfast, subjects took the study drug 30 minutes before either dinner or lunch on the same day.
Pain symptoms, other clinical symptoms and QOL were measured as secondary endpoints. Pain symptoms were evaluated in the patient diary from Visit 1 to the day before Visit 7 using the NRS score. The UFS-QOL score was used to evaluate other clinical symptoms and the QOL of subjects. Subjects completed the UFS-QOL questionnaire at Visits 3, 5, 6 and 7.
In particular, FIGS. 50-52 tabulate hemoglobin concentrations; FIG. 53 tabulates hematocrit percentages; FIG. 54 tabulates serum iron concentrations; and FIG. 55 tabulates ferritin concentrations.
PBAC scores were used in Example 5A, and provide an estimate of menstrual blood loss volume. The PBAC score was evaluated by having subjects record details related to menstrual blood loss on a PBAC score sheet distributed by the sponsor during the treatment period. […] These items represent the level of stained sanitary materials over the course of a menstrual cycle, with a total score ranging from 0 (none) to infinity. Higher scores indicate heavier blood loss. The PBAC score sheet also allows subjects to indicate: whether they experienced bleeding between periods that required sanitary protection; whether they passed clots, and if so, approximate size of the clots; whether they experienced episodes of flooding; and whether they required double protection (used both a pad and tampon simultaneously). As used in the PBAC score sheet of Example 5A, flooding is defined as overflowing, or staining, of clothing or underwear due to menstrual bleeding.
The total PBAC score was derived by summing points for each of the above.
All myoma and uterine volumes referred to herein were evaluated using transvaginal ultrasound. Specifically, the myoma volumes were calculated using the following formula: D1×D2×D3×π/6, where D1 is the longest diameter of the myoma; D2 is the longest diameter of the myoma at an angle perpendicular to D1; and D3 is the diameter of the myoma crossing the intersection of D1 and D2 perpendicular to the D1/D2 plane.

[1] = 20 mg, Week 12, listed as Relugolix
[2] = 40 mg, Week 6-12, listed as Relugolix
[3] = 40 mg, Week 12, listed as Relugolix

With `CONC(=O)Nc1ccc(-c2sc3c(c2CN(C)C)c(=O)n(-c2ccc(OC)nn2)c(=O)n3Cc2c(F)cccc2F)cc1` [Compound 1, N-(4-(1-(2,6-difluorobenzyl)-5-((dimethylamino)methyl)-3-(6-methoxy-3-pyridazinyl)-2,4-dioxo-1,2,3,4-tetrahydrothieno[2,3-d]pyrimidin-6-yl)phenyl)-N′-methoxyurea] the “UFS-QOL HRQL total score” value (20 mg, Week 8) was 9.54±10.904, the “UFS-QOL symptom severity score” value (20 mg, Week 8) was 18.53±13.304 and the ferritin value (20 mg, Week 8) was 16.34 ± 15.659 ng/mL. For the same molecule, the myoma volume (20 mg, Week 8) was 86.34±103.084 cm^3, the uterine volume (20 mg, Week 8) was 290.93±413.549 cm^3 and the “Fe value (serum iron)” value (20 mg, Week 12) was 85.7 ± 44.40 µg/dL. For the same molecule, the Ht value (20 mg, Week 12) was 40.54±3.003%, the “UFS-QOL HRQL total score” value (20 mg, Week 12) was 9.63±12.735 and the “UFS-QOL HRQL total, change from baseline” value (20 mg, Week 12) was −2.11±10.529. The “UFS-QOL symptom severity score” value (20 mg, Week 12) was 16.56±14.024, the “UFS-QOL symptom severity, change from baseline” value (“UFS-QOL symptom severity, change” for short) (20 mg, Week 12) was −8.97±15.530 and the “change of Fe value from baseline” value (20 mg, Week 12) was 24.7 ± 53.53 µg/dL. For the same molecule, the “change of Hb from baseline” value (20 mg, Week 12) was 0.83 ± 1.161 g/dL, the “change of Ht value from baseline” value (20 mg, Week 12) was 2.31±3.522% and the “change of ferritin value from baseline” value (20 mg, Week 12) was 3.50 ± 10.229 ng/mL. The ferritin value (20 mg, Week 12) was 18.03 ± 14.427 ng/mL, the myoma volume (20 mg, Week 12) was 75.09±89.699 cm^3 and the “percent change of myoma volume from baseline” value (from here on “percent change of myoma volume”) (20 mg, Week 12) was −36.69±32.631%. For the same molecule, the “percent change of uterine volume from baseline” value (“percent change of uterine volume” below) (20 mg, Week 12) was −27.70±28.787%, the uterine volume (20 mg, Week 12) was 259.44±322.759 cm^3 and the “UFS-QOL HRQL total, change from baseline” value [1] was −2. The “UFS-QOL symptom severity, change” value [1] was −9, the “change of Hb from baseline” value [1] was 0.8 g/dL and the “percent change of myoma volume” value [1] was −37%. The “percent change of uterine volume” value [1] was −28%, the “Amenorrhea (PBAC from Week 6 to 12 was 0), number of patients” value (40 mg (n = 55)) was 40 n and the myoma volume (40 mg, Week 2) was 109.29±132.534 cm^3. The uterine volume (40 mg, Week 2) was 293.51±288.596 cm^3, the NRS score (40 mg, Week 2-6) was 0.29±0.564 and the “subjects who achieved amenorrhea (PBAC = 0)” value (40 mg, Week 2-6) was 54.5%. For the same molecule, the “subjects with total PBAC score <10” value (40 mg, Week 2-6) was 65.5%, the NRS score (40 mg, Week 2-12) was 0.27±0.535 and the “subjects with total PBAC score <10” value (40 mg, Week 2-12) was 61.8%. For the same molecule, the “Fe value (serum iron)” value (40 mg, Week 4) was 77.6 ± 44.81 µg/dL, the Ht value (40 mg, Week 4) was 39.44±4.012% and the “UFS-QOL HRQL total score” value (40 mg, Week 4) was 11.31±12.082. The “UFS-QOL symptom severity score” value (40 mg, Week 4) was 24.10±16.141, the ferritin value (40 mg, Week 4) was 15.14 ± 15.133 ng/mL and the myoma volume (40 mg, Week 4) was 100.04±139.060 cm^3. The uterine volume (40 mg, Week 4) was 267.74±275.256 cm^3, the NRS score (40 mg, Week 6-12) was 0.25±0.542 and the “change of total PBAC score from baseline” value (40 mg, Week 6-12) was −238.7±203.34. For the same molecule, the “subjects who achieved amenorrhea (PBAC = 0)” value (40 mg, Week 6-12) was 72.7% and 73%, the “subjects with total PBAC score <10” value (40 mg, Week 6-12) was 83.6% and the “total PBAC score (mean±SD)” value (40 mg, Week 6-12) was 21.3±56.11. The NRS score [2] was 0.2, the “subjects who achieved amenorrhea (PBAC = 0)” value [2] was “(72.7) %” and the “Fe value (serum iron)” value (40 mg, Week 8) was 78.2 ± 41.91 µg/dL. The Ht value (40 mg, Week 8) was 40.23±3.620%, the “UFS-QOL HRQL total score” value (40 mg, Week 8) was 11.20±12.279 and the “UFS-QOL symptom severity score” value (40 mg, Week 8) was 18.08±15.187. For the same molecule, the ferritin value (40 mg, Week 8) was 18.10 ± 16.177 ng/mL, the myoma volume (40 mg, Week 8) was 86.01±120.639 cm^3 and the uterine volume (40 mg, Week 8) was 224.91±227.442 cm^3. The “Fe value (serum iron)” value (40 mg, Week 12) was 82.0 ± 36.93 µg/dL, the Ht value (40 mg, Week 12) was 40.53±3.307% and the “UFS-QOL HRQL total score” value (40 mg, Week 12) was 9.52±10.885. The “UFS-QOL HRQL total, change from baseline” value (40 mg, Week 12) was −5.52±15.871, the “UFS-QOL symptom severity score” value (40 mg, Week 12) was 14.05±15.272 and the “UFS-QOL symptom severity, change” value (40 mg, Week 12) was −11.25±17.274. The “change of Fe value from baseline” value (40 mg, Week 12) was 25.5 ± 44.43 µg/dL, the “change of Hb from baseline” value (40 mg, Week 12) was 0.92 ± 1.183 g/dL and the “change of Ht value from baseline” value (40 mg, Week 12) was 2.46±3.445%. For the same molecule, the “change of ferritin value from baseline” value (40 mg, Week 12) was 8.91 ± 13.131 ng/mL, the ferritin value (40 mg, Week 12) was 21.84 ± 21.509 ng/mL and the myoma volume (40 mg, Week 12) was 77.88±110.873 cm^3. For the same molecule, the “percent change of myoma volume” value (40 mg, Week 12) was −38.59±34.197%, the “percent change of uterine volume” value (40 mg, Week 12) was −40.90±37.233% and the uterine volume (40 mg, Week 12) was 208.03±209.312 cm^3. The “UFS-QOL HRQL total, change from baseline” value [3] was −6, the “UFS-QOL symptom severity, change” value [3] was −11 and the “change of Hb from baseline” value [3] was 0.9 g/dL. For the same molecule, the “percent change of myoma volume” value [3] was −39% and the “percent change of uterine volume” value [3] was −41%.
